For four compounds, EC50 results are on record in US9409931B1, “3-O-acyl-ingenol analogues” (LEO LABORATORIES LIMITED, priority 2015, dated 2016).

SMILES strings stand for the structures. pEC50: −log10 of the molar value.

In assay [1] the test system is PMN's (polymorphonuclear leukocytes). Description: Neutrophil oxidative burst. Conditions: Leukocyte, 40 min; normalized to positive control 5×10^−7 M PEP0005; 40 min incubation at RT; read-out: Neutrophil oxidative burst Rel EC50. Format: cell-based. The method, then:
PMN's (polymorphonuclear leukocytes) were isolated and purified from fresh buffy coats by sequential sedimentation, density centrifugation and lysis of contaminating erythrocytes. Buffy coats were incubated with 2% methocel for 30-45 min to differentially sediment red blood cells. The leukocyte-rich supernatant was transferred to lymphoprep tubes to remove mononuclear cells by density centrifugation (400×g, 30 min). The pellet was resuspended and any remaining erythrocytes lysed using 0.2% NaCl for 30 sec before restoring isotonicity by the addition of 1.2% NaCl. This step was repeated until the cell pellet appears relatively free of red blood cells. Cells were resuspended in DPBS (Dulbecco's Phosphate Buffered Saline) (w.o. Ca^2+, Mg^2+) and the concentration adjusted to 1.4×10^6 cells/ml in HBSS (Hanks Balanced Salt solution) (w Ca^2+, Mg^2+) containing 0.1% BSA (Bovine Serum Albumin) and 5 mM glucose just prior to assay initiation. Titrated reference and test compounds were pre-mixed with HE (Hydroethidine) (10 μM final assay concentration) before addition to 96-well plates containing 2.5×10^5 cells. Following 40 min incubation at RT, changes in the respiratory burst was estimated by measuring fluorescence at 579 nm (excitation: 485 nm) using an Envision plate reader.
Test compound titration curves were fitted to a four-parameter sigmoidal curve after normalizing the effect of the test compound to the effect of the positive control (5×10^−7 M PEP0005). Rel EC50 (relative EC50) denotes the concentration of test compound producing an effect that is midway between the fitted top and bottom.

The test system of assay [2] is Primary human epidermal keratinocytes, HeKa. Description: HeKa cytokine release (IL-8). It is filed as cell-based. Conditions: normalized to positive control 1.5×10^−7 M PEP0005, 6 h incubation, read-out: HeKa cytokine release (IL-8) Rel EC50. The method, then:
Primary human epidermal keratinocytes, HeKa, were seeded (10.000 cells/well) in 96-well plates the day before the assay. Test compounds were diluted in DMSO (dimethyl sulfoxide) and further diluted in assay medium and pipetted into wells of 96 well-plates containing HeKa cells. The plates were incubated for 6 h at 37° C. in humidified air with 5% CO2. Plates were centrifuged briefly to spin down cells at 4° C., the supernatant was removed and analysed by Meso Scale Discovery (MSD) 4-spot cytokine assay (Pro-inflammatory II Ultra Sensitive kit, MSD, MD, USA). The MSD assay employs a sandwich immunoassay format where capture antibodies are coated in a patterned array on the bottom of the wells of a 4-Spot-Multi-MSD plate. Standard samples were incubated in the MULTI-SPOT plates as well, and the cytokine (IL-8) binds to its corresponding capture antibody spot. The cytokine level was quantitated on a SECTOR™ Imager using a cytokine-specific Detection Antibody labelled with MSD SULFO-TAG™ reagent.
Test compound titration curves were fitted to a four-parameter sigmoidal curve after normalizing the effect of the test compound to the effect of the positive control (1.5×10^−7 M PEP0005). Rel EC50 (relative EC50) denotes the concentration of test compound producing an effect that is midway between the fitted top and bottom.

Assay [3] concerns the target Human Protein Kinase C delta (PKCδ) (Homo sapiens (Human), UniProt Q05655). The assay is described as follows: PKC δ binding assay. As to conditions: kinase activation, γ-33P-ATP, normalized to the effect of DMSO; read-out: PKC-δ binding Rel EC50. Format: biochemical. The method, then:
On the day at experiment Human Protein Kinase C delta (PKCδ, Millipore cat#14-504) was diluted in 20 mM HEPES, 0.03% Triton X-100. Amount of enzyme in each assay was 7.25 ng (final assay volume is 25 μL). All compounds for testing were diluted to 1 mM in 100% DMSO as an intermediary dilution. The compounds were then diluted further to 50 μM, and then serially diluted in 100% DMSO in semi-logarithmic decrements for 12 points. 0.5 μL of each concentration, in duplicate, was pipetted into a dry 96 well assay plate using a TTP Mosquito. Control and blank wells received 0.5 μL of 100% DMSO instead of compound. The assay was built with the addition of 14.5 μL of assay mixture, containing appropriately diluted enzyme and 20 mM HEPES pH 7.4, 0.03% Triton X-100, 0.05 mg/mL phosphatidylserine, and 50 μM ERMRPRKRQGSVRRRV. The assay was started with the addition of 10 μL ATP containing γ-33P-ATP] (specific activity approx. 500 cpm/pmol), to a final assay concentration of 15 μM. The reaction was allowed to proceed at room temperature for 40 minutes before the addition of 5 μL 3% ortho-phosphoric acid. Blank wells were acid blanks, and had 5 μL 3% ortho-phosphoric acid added before the addition of ATP. 10 μL of the stopped reaction products was transferred to a P30 filtermat which was then washed 4 times in 75 mM ortho-phosphoric acid, and once in methanol before drying. The filter was read by liquid scintillation counting using a Wallac Trilux. Rel EC50 (relative EC50) denotes the concentration of test compound that produces a response half-way between the fitted top and the fitted bottom of the curve when activities are normalized to the effect of DMSO.

Assay [4] deals with Human Protein Kinase C betaII (PKCbII) (Homo sapiens (Human), UniProt P05771). The assay is described as follows: PKCbetaII activity assay. It is filed as biochemical. As to conditions: γ-33P-ATP, normalized to the effect of DMSO, read-out: PKC-β binding Rel EC50. On the procedure:
On the day at experiment Human Protein Kinase C betaII (PKCbII, Millipore cat#14-496) was incubated with 20 mM HEPES pH 7.4, 0.03% Triton X-100, 0.1 mM CaCl2, 0.1 mg/mL phosphatidylserine, 0.1 mg/mL histone H1, 10 mM MgAcetate. Amount of enzyme in each assay was 1.8 ng (final assay volume is 25 μL). The compounds were then diluted to 500 μM, and then serially diluted in 100% DMSO in semi-logarithmic decrements for 12 points. 0.5 μL of each concentration, in duplicate, was pipetted into a dry 96 well assay plate using a TIP Mosquito. Control and blank wells received 0.5 μL of 100% DMSO instead of compound. 14.5 μl kinase in assay buffer was added to each well. The assay was started with the addition of 10 μL ATP containing γ-33P-ATP] (specific activity approx. 500 cpm/pmol), to a final assay concentration of 70 μM. The reaction was allowed to proceed at room temperature for 40 minutes before the addition of 5 μL 3% ortho-phosphoric acid. Blank wells were acid blanks, and had 5 μL 3% ortho-phosphoric acid added before the addition of ATP. 10 μL of the stopped reaction products was transferred to a P30 filtermat which was then washed 4 times in 75 mM ortho-phosphoric acid, and once in methanol before drying. The filter was read by liquid scintillation counting using a Wallac Trilux. Rel EC50 (relative EC50) denotes the concentration of test compound that produces a response half-way between the fitted top and the fitted bottom of the curve when activities are normalized to the effect of DMSO.

Chain of Human Protein Kinase C betaII (PKCbII) (P05771 other isoform, or with tags, fused parts or gaps): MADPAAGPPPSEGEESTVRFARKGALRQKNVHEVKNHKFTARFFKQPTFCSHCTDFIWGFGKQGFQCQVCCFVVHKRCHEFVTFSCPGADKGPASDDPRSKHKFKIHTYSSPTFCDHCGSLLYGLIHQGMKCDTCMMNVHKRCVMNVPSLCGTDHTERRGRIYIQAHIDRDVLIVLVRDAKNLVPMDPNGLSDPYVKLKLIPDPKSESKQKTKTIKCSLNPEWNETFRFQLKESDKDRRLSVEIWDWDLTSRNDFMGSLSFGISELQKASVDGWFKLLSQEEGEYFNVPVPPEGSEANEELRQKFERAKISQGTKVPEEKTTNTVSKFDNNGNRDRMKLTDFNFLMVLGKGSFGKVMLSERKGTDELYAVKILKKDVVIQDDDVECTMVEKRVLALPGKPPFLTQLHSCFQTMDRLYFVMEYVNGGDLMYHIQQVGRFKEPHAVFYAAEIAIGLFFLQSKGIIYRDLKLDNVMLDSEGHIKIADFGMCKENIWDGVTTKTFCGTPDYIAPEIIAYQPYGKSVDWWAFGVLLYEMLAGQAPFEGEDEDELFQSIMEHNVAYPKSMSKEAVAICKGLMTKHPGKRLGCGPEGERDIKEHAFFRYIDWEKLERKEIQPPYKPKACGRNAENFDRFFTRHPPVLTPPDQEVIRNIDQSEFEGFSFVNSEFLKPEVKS
Chain of Human Protein Kinase C delta (PKCδ) (Q05655 whole entry): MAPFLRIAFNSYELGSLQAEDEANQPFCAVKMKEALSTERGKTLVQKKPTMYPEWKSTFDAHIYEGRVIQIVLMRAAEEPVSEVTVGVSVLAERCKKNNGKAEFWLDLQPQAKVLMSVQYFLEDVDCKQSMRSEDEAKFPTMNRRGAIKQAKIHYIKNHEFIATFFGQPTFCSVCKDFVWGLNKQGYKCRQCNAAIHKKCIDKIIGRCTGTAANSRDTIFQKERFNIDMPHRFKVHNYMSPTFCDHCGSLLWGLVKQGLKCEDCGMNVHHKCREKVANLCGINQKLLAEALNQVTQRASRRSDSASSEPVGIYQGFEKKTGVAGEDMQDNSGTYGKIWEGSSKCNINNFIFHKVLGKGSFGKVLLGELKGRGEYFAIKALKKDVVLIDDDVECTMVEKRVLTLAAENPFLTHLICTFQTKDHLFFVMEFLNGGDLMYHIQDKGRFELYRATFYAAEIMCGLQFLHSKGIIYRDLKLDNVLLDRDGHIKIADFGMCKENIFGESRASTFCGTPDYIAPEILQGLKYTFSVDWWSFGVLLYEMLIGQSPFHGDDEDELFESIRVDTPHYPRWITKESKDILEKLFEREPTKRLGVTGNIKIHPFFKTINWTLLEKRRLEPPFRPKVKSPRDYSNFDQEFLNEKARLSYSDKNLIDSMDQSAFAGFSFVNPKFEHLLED

Consider `CC1=C[C@]23C(=O)[C@@H](C=C(CO)C[C@@H]2[C@H]1OC(=O)C1(C)CCCCC1)[C@H]1[C@@H](C[C@H]3C)C1(C)C` [Compound 5, 4,5-dideoxyingenol 3-(1-methyl-cyclohexanecarboxylate)], for which the pEC50 in assay [1] is 7.89; in assay [2] it was 6.89; in assay [3], 5.95; in assay [4], 8.22.
Consider `CC1=C[C@]23C(=O)[C@@H](C=C(CO)C[C@]2(O)[C@H]1OC(=O)C1(C)CCCCC1)[C@H]1[C@@H](C[C@H]3C)C1(C)C` [Compound 6, 5-deoxyingenol 3-(1-methyl-cyclohexanecarboxylate)], for which the pEC50 in assay [1] is 8.15; in assay [2] it was 7.59; in assay [3] it was 7.10; in assay [4] it was 9.10.
For `CC1=C[C@]23C(=O)[C@@H](C=C(CO)[C@@H](O)[C@@H]2[C@H]1OC(=O)C1(C)CCCCC1)[C@H]1[C@@H](C[C@H]3C)C1(C)C` [Compound 7, 4-deoxyingenol 3-(1-methyl-cyclohexanecarboxylate)], in that order: 8.05, 7.46, 6.81 and 9.70.
`CC1=C[C@@]23CC[C@@H]4[C@H]([C@H](C=C(CO)[C@@H](O)[C@]2(O)[C@H]1OC(=O)C1(C)CCCCC1)C3=O)C4(C)C` [Compound 8, 11-desmethyl-ingenol 3-(1-methyl-cyclohexanecarboxylate)]: the pEC50 in assay [1] was 8.40; in assay [2], 8.40; in assay [3], 8.15; in assay [4], 10.00.

What is called pEC50 is −log10 of the EC50, conventionally taken in molar units.
